In assay [1] the target is T1, human recombinant Monoacylglycerol Lipase (Homo sapiens, UniProt Q99685).
T1 sequence (Q99685 1-303): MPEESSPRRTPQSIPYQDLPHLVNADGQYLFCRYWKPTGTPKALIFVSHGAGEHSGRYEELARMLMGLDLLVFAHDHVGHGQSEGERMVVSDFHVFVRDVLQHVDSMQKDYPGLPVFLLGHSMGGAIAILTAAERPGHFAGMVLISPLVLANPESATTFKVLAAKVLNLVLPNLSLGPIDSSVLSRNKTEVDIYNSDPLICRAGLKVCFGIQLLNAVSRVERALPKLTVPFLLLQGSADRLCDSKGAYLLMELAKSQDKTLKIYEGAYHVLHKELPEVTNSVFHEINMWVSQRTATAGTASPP
As to the kind of experiment: MAGL inhibition enzymatic assay, fluorogenic substrate 7-HCA, IC50 at T=0 min or after 30 minute incubation (T=30 min). It is filed as biochemical. Particulars: geometric mean of 2-4 determinations unless otherwise indicated. Here is the method:
An equal volume of 7-HCA in assay buffer with 10% DMSO was added either immediately (T=0 min) or after a 30 minute incubation (T=30 min) to initiate the reaction. […] After these dilutions, the final concentration of the test compound ranged from 3 μM to 0.03 nM. […] IC50 values were generated based on a four parameter fit model using ABASE software from IDBS.

The target of assay [2] is T1, human recombinant Monoacylglycerol Lipase. Description: MAGL inactivation, enzyme progress curves, kinact/KI. It is filed as biochemical. The conditions noted are these: from enzyme progress curves, T = 0 min protocol; geometric mean of 2-4 determinations unless otherwise indicated. As to the method:
Assessment of MAGL inhibition utilizes human recombinant Monoacylglycerol Lipase and the fluorogenic substrate 7-hydroxycoumarinyl arachidonate (7-HCA, Biomol ST-502). 400 nL of a test compound at decreasing concentration (ranging from 150 μM down to 1.5 nM) was spotted into a 384-well back plate (PerkinElmer, 6007279) using a Labcyte Echo, followed by addition of 10 μL of MAGL enzyme in assay buffer (50 mM HEPES, pH 7.4, 100 mM NaCl, 5 mM MgCl2, 0.1% Triton X-100 and 25% glycerin). An equal volume of 7-HCA in assay buffer with 10% DMSO was added either immediately (T=0 min) or after a 30 minute incubation (T=30 min) to initiate the reaction. The final concentration of MAGL enzyme was […] and 7-HCA substrate was 5 μM. After these dilutions, the final concentration of the test compound ranged from 3 μM to 0.03 nM. The reaction was allowed to progress for 60 minutes, after which the plate was read at an Ex/Em of 340/465. Percent inhibitions were calculated based on control wells containing no compound (0% inhibition) and a control compound (e.g., a MAGL inhibitor whose activity is known or was previously reported in the literature, such as one with about 100% inhibition). IC50 values were generated based on a four parameter fit model using ABASE software from IDBS. See e.g., Wang, Y. et al., “A Fluorescence-Based Assay for Monoacylglycerol Lipase Compatible with Inhibitor Screening,” Assay and Drug Development Technologies, 2008, Vol. 6 (3) pp 387-393 (reporting an assay for measuring MAGL activity).
To measure MAGL inactivation, the same protocol for the (T=0 min) MAGL inhibition IC50 assay was performed with data collected every minute to acquire enzyme progress curves at decreasing concentrations of compound.

[3] abbreviates: T = 0 min (substrate added immediately), read-out: MAGL (T = 0 min) IC50.
[4] abbreviates: T = 30 min (30 minute incubation), read-out: MAGL (T = 30 min) IC50.

The values below come from patent publication US10723711B2, “1,1,1-trifluoro-3-hydroxypropan-2-yl carbamate derivatives and 1,1,1-trifluoro-4-hydroxybutan-2-yl carbamate derivatives as MAGL inhibitors” (PFIZER INC., priority 2015, dated 2020).

As usually defined, the pIC50 is −log10 of the IC50, conventionally taken in molar units.

Structures are written as SMILES. pIC50: −log10 of the molar value. Where two headings read alike, the source gives them in different places.

Regarding `O=C(O[C@H](CO)C(F)(F)F)N1C[C@@H]2[C@H](C1)[C@H]2c1ccn(Cc2ccccn2)n1` [Example 37], the pIC50 in assay [1] (setting [3]) was 6.45; in assay [1] (setting [4]) it was 7.57. Moreover, in assay [2], the “MAGL kinact/KI” value is given as 1616 1/s per M.
The matching figures for `O=C(O[C@H](CO)C(F)(F)F)N1CCC2(CC1)CN(CC1CCCOC1)CCO2` (single isomer, unassigned) [Example 4]: 6.78, 7.72 and 5489 1/s per M.
`O=C(O[C@H](CO)C(F)(F)F)N1CCC2(CC1)CN(S(=O)(=O)NCc1ccccc1)CCO2` [Example 67]: the negative logarithm of the IC50 (pIC50) in assay [1] (setting [3]) was 7.54; in assay [1] (setting [4]), 8.40. In addition, the “MAGL kinact/KI” value in assay [2] is listed as 30591 1/s per M.
For `O=C(O[C@H](CO)C(F)(F)F)N1CCC2(CC1)CN(S(=O)(=O)c1ccc(F)cc1)C(O)CO2` (mixture of isomers) [Example 29, (2R)-1,1,1-Trifluoro-3-hydroxypropan-2-yl 4-[(4-fluorophenyl)sulfonyl]-3-hydroxy-1-oxa-4,9-diazaspiro[5.5]undecane-9-carboxylate] the same measures were 6.96, 7.62 and 85270 1/s per M.
For `COP(=O)(OC)OC[C@@H](OC(=O)N1CCC2(CC1)CN(S(=O)(=O)c1ccc(F)cc1)CCO2)C(F)(F)F` [Example 86] the same measures were 7.01, 8.10 and 132 1/s per M.
`O=C(O[C@H](CO)C(F)(F)F)N1CCC2(CC1)CN(S(=O)(=O)c1ccc(F)c(Cl)c1)CCO2` [Example 60]: the values for the pIC50 in assay [1] (setting [3]) and in assay [1] (setting [4]) were 7.43 and 8.70, respectively. Also, the “MAGL kinact/KI” value in assay [2] was 19870 1/s per M.
The matching figures for `COc1ccc(-n2ccc([C@H]3[C@@H]4CN(C(=O)O[C@H](CO)C(F)(F)F)C[C@@H]43)n2)nc1` [Example 1, (2R)-1,1,1-trifluoro-3-hydroxypropan-2-yl (1α,5α,6α)-6-[1-(5-methoxypyridin-2-yl)-1H-pyrazol-3-yl]-3-azabicyclo[3.1.0]hexane-3-carboxylate]: 7.07, 7.85 and 7806 1/s per M.
As to `COc1ccc(-n2ccc([C@H]3[C@@H]4CN(C(=O)O[C@H](CO)C(F)(F)F)C[C@@H]43)n2)cn1` [Example 69], the results for the pIC50 in assay [1] (setting [3]) and in assay [1] (setting [4]) were 6.98 and 7.96, respectively. In addition, the “MAGL kinact/KI” value in assay [2] is recorded as 4621 1/s per M.
The matching figures for `Cc1ccc(OC2CCN(C(=O)O[C@H](CO)C(F)(F)F)CC2)nc1` [Example 57]: 6.90, 8.00 and 5998 1/s per M.
The matching figures for `Cc1ccc(S(=O)(=O)N2CCOC3(CCN(C(=O)O[C@H](CO)C(F)(F)F)CC3)C2)cc1Cl` [Example 59]: 7.82, 9.00 and 59048 1/s per M.
For `Cc1cnc(OC2CCN(C(=O)O[C@H](CO)C(F)(F)F)CC2)c(C)c1` [Example 61], the pIC50 was 7.28 in assay [1] (setting [3]) and 8.30 in assay [1] (setting [4]). Moreover, the “MAGL kinact/KI” value in assay [2] is 7304 1/s per M.
`CC1N(S(=O)(=O)c2ccc(F)cc2)CCOC12CCN(C(=O)O[C@H](CO)C(F)(F)F)CC2` (single isomer, unassigned) [Example 71]: the pIC50 is 7.00 in assay [1] (setting [3]) and 7.77 in assay [1] (setting [4]). For the same compound, the “MAGL kinact/KI” value in assay [2] was 9358 1/s per M.
On to `O=C(O[C@H](CO)C(F)(F)F)N1CCC2(CC1)CN(Cc1ccc(F)cc1)CCO2` [Example 42], for which the pIC50 in assay [1] (setting [3]) is 6.52; in assay [1] (setting [4]), 7.49. Moreover, the “MAGL kinact/KI” value in assay [2] is on record as 2591 1/s per M.
For the compound `Cn1nccc1-c1ccnc(OC2CCN(C(=O)O[C@H](CO)C(F)(F)F)CC2)c1` [Example 64], the pIC50 in assay [1] (setting [3]) was 6.26; in assay [1] (setting [4]), 7.38.
Take `O=C(O[C@H](CO)C(F)(F)F)N1CCC2(CC1)CN(S(=O)(=O)C1CCOCC1)CCO2` [Example 49]: the pIC50 in assay [1] (setting [3]) is under 5.52; in assay [1] (setting [4]) it was 6.18.
On to `CN(C1COC2(CCN(C(=O)O[C@H](CO)C(F)(F)F)CC2)C1)S(=O)(=O)C1CCOCC1` (single isomer, unassigned) [Example 116], for which the pIC50 in assay [1] (setting [3]) was 6.01; in assay [1] (setting [4]), 7.08.
The matching figures for `O=C(O[C@H](CO)C(F)(F)F)N1CCC2(CC1)CN(S(=O)(=O)CCc1ccccn1)CCO2` [Example 55]: 6.35 and 7.37.
Turning to `O=C(O[C@H](CO)C(F)(F)F)N1CCC2(CC1)CC(OCc1ccccc1)CO2` (mixture of isomers) [Example 132], the figures for the pIC50 in assay [1] (setting [3]) and in assay [1] (setting [4]) were 6.89 and 7.92, respectively. In addition, the “MAGL kinact/KI” value in assay [2] is on record as 8426 1/s per M.
Turning to `Cc1cnc(OC2CCN(C(=O)O[C@H](CO)C(F)(F)F)CC2)nc1-c1ccnn1C` [Example 58], the pIC50 in assay [1] (setting [3]) is 6.60; in assay [1] (setting [4]), 7.48.
The matching figures for `O=C(OC(CO)C(F)(F)F)N1CCC(c2ccnc(N3CCOCC3)n2)CC1` (centres unmarked) [Example 35]: 6.47 and 7.49.
`O=C1COC2(CCN(C(=O)O[C@H](CO)C(F)(F)F)CC2)CN1Cc1ccc(F)cc1` [Example 17, (2R)-1,1,1-Trifluoro-3-hydroxypropan-2-yl 4-(4-fluorobenzyl)-3-oxo-1-oxa-4,9-diazaspiro[5.5]undecane-9-carboxylate]: the pIC50 in assay [1] (setting [3]) is 6.02; in assay [1] (setting [4]), 6.96.
`CN([C@H]1COC2(CCN(C(=O)O[C@H](CO)C(F)(F)F)CC2)C1)S(=O)(=O)c1ccccc1` [Example 15, (2R)-1,1,1-trifluoro-3-hydroxypropan-2-yl (3R)-3-[methyl(phenylsulfonyl)amino]-1-oxa-8-azaspiro[4.5]decane-8-carboxylate]: the values for the pIC50 in assay [1] (setting [3]) and in assay [1] (setting [4]) were 7.77 and 8.70, respectively. In addition, the “MAGL kinact/KI” value in assay [2] is given as 44421 1/s per M.
Turning to `O=C(O[C@H](CO)C(F)(F)F)N1CCC2(CC1)CN(S(=O)(=O)CCCn1ccnc1)CCO2` [Example 56], the pIC50 was 5.63 in assay [1] (setting [3]) and 6.78 in assay [1] (setting [4]).
For `C[N+](C)(C)CCOP(=O)([O-])OC[C@@H](OC(=O)N1CCC2(CC1)CN(S(=O)(=O)c1ccc(F)cc1)CCO2)C(F)(F)F` [Example 90] the same measures were under 5.52 and under 5.52.
The matching figures for `CN(CC1(O)CCN(C(=O)O[C@H](CO)C(F)(F)F)CC1)S(=O)(=O)c1ccccc1` [Example 24, (2R)-1,1,1-Trifluoro-3-hydroxypropan-2-yl 4-hydroxy-4-{[methyl(phenylsulfonyl)amino]methyl}piperidine-1-carboxylate]: 5.72 and 6.71.
